From paper PMC6710349, “Action of Dicumarol on Glucosamine-1-Phosphate Acetyltransferase of GlmU and Mycobacterium tuberculosis” (Frontiers in Microbiology, 2019)

Biological target: GlmU (glucosamine-1-phosphate acetyltransferase / N-acetylglucosamine-1-phosphate uridyltransferase) (Mycobacterium tuberculosis, UniProt P9WMN3)
Assay: DTNB colorimetric acetyltransferase assay, with Lineweaver-Burk kinetics
Type: biochemical

Sequence of GlmU (glucosamine-1-phosphate acetyltransferase / N-acetylglucosamine-1-phosphate uridyltransferase) (P9WMN3 2-495 limits assumed): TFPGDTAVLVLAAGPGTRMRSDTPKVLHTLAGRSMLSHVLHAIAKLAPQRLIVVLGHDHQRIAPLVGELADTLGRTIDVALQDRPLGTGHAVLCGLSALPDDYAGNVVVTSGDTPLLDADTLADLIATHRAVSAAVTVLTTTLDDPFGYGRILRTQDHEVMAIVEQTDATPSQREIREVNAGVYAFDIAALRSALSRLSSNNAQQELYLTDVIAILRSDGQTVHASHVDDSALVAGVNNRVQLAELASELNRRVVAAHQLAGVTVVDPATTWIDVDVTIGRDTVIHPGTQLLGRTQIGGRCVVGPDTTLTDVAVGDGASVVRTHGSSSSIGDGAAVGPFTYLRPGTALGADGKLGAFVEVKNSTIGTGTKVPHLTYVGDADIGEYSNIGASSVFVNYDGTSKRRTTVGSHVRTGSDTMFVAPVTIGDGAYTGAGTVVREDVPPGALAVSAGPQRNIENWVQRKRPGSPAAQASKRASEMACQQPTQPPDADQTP

O=c1oc2ccccc2c(O)c1Cc1c(O)c2ccccc2oc1=O [compound 22, 3,3′-methylene-bis-4-hydroxycoumarin] gave an IC50 of 13.7 µM.
